Patent US20110092367A1, “Herbicidal Compositions Comprising 4-amino-3,6-dichloropyridine-2-carboxylic Acid” (BASF SE, priority 2008, published 2011)

What was measured:
Assay type in all cases: in vivo
[1] = tested on: Anthemis arvensis; test: Field trial Example 1, successive application: damage on ANTAR
Text: (§1) Aminiopyralid was used as commercial aquaeous solution having an active ingredient concentration of 240 g/l (Milestone™). Metazachlor was used as a commercial suspension concentrate having an active ingredient concentration of 500 g/l (Butisan S®).
(§2) The performance of aminopyralid applied as an alone treatment at 15, 30 and 50 g a.i./ha applied as an early post emergence treatment and an post emergence treatment in comparison to two different applications including metazachlor at 500 g a.i./ha as an early post emergence application in succession of aminopyralid as a post emergence application at 15 and 30 g a.i./ha was assessed in an oilseed rape field trials.
(§3) The early post emergence treatment was applied by means of fine distributed nozzles at the growth stage (GS) of the crop BBCH 11-12.
(§4) The post emergence treatment was applied by means of fine distributed nozzles at the growth stage (GS) of the crop BBCH 13-14.
(§5) The test period extended over the autumn and spring season (205 days).
(§6) In the following experiments, the herbicidal activity for the individual herbicide compounds (solo application) and of the herbicidal succession was assessed 4 times:
(§7) The evaluation for the damage on undesired weeds caused by the chemical compositions was carried out using a scale from 0 to 100%, compared to the untreated control plants. Here, 0 means no damage and 100 means complete destruction of the plants.

[2] = tested on: Alopecurus myosuroides; test: Field trial Example 1, successive application: damage on ALOMY
Text: as §1, §2, §3, §4, §5, §6, §7

[3] = tested on: Matricaria inodora; test: Field trial Example 1, successive application: damage on MATIN
Text: as §1, §2, §3, §4, §5, §6, §7

[4] = tested on: Geranium pusillum; test: Field trial Example 1, successive application: damage on GERPU
Text: as §1, §2, §3, §4, §5, §6, §7

[5] = tested on: Mercurialis annua; test: Greenhouse trial, post-emergence: MERAN; settings: for % activity 28 DAT: MERAN
Experimental: The test plants have been seeded, separately for each species, in plastic containers in sandy loamy soil containing 5% organic matter.
For the post emergence treatment, the plants were first grown to the 2 leaf station (GS 12). Here, the herbicidal compositions were suspended or emulsified in water as distribution medium and sprayed using finely distributing nozzels.
The plants have been cultivated due to there individual requirements at 10-25° C. and 20-35° C. The plants were irrigated due to there necessity. […]
as §7
Calculation of expected activity of binary mixtures was done by using the Colby-Formula according to Example 1.

[6] = tested on: Papaver rhoeas; test: Field trial Example 1, successive application: damage on PAPRH
Text: as §1, §2, §3, §4, §5, §6, §7

[7] = 15 g ai/ha, treatment A early post emergence, DAT 25/DALT 10
[8] = 15 g ai/ha, treatment A early post emergence, DAT 65/DALT 50
[9] = 15 g ai/ha, treatment A early post emergence, DAT 176/DALT 161
[10] = 15 g ai/ha, treatment B post emergence, DAT 25/DALT 10
[11] = 15 g ai/ha, treatment B post emergence, DAT 65/DALT 50
[12] = 15 g ai/ha, treatment B post emergence, DAT 176/DALT 161
[13] = 30 g ai/ha, treatment A early post emergence, DAT 25/DALT 10
[14] = 30 g ai/ha, treatment A early post emergence, DAT 65/DALT 50
[15] = 30 g ai/ha, treatment A early post emergence, DAT 176/DALT 161
[16] = 30 g ai/ha, treatment B post emergence, DAT 25/DALT 10
[17] = 30 g ai/ha, treatment B post emergence, DAT 65/DALT 50
[18] = 30 g ai/ha, treatment B post emergence, DAT 176/DALT 161
[19] = 50 g ai/ha, treatment A early post emergence, DAT 25/DALT 10
[20] = 50 g ai/ha, treatment A early post emergence, DAT 65/DALT 50
[21] = 50 g ai/ha, treatment A early post emergence, DAT 176/DALT 161
[22] = 50 g ai/ha, treatment B post emergence, DAT 25/DALT 10
[23] = 50 g ai/ha, treatment B post emergence, DAT 65/DALT 50
[24] = 50 g ai/ha, treatment B post emergence, DAT 176/DALT 161
[25] = aminopyralid 15 g ai/ha, treatment A, DAT 205/DALT 190
[26] = aminopyralid 15 g ai/ha, treatment B, DAT 205/DALT 190
[27] = aminopyralid 30 g ai/ha, treatment A, DAT 205/DALT 190
[28] = aminopyralid 30 g ai/ha, treatment B, DAT 205/DALT 190
[29] = aminopyralid 50 g ai/ha, treatment A, DAT 205/DALT 190
[30] = aminopyralid 50 g ai/ha, treatment B, DAT 205/DALT 190

`Nc1cc(Cl)nc(C(=O)O)c1Cl` [aminopyralid, 4-amino-3,6-dichloropyridine-2-carboxylic acid] was tested, and the “damage on ANTAR” value [1, 7] was 97%, the “damage on ANTAR” value [1, 8] was 96% and the “damage on ANTAR” value [1, 9] was 100%. For the same molecule, the “damage on ANTAR” value [1, 10] was 87%, the “damage on ANTAR” value [1, 11] was 87% and the “damage on ANTAR” value [1, 12] was 98%. The “damage on ANTAR” value [1, 13] was 100%, the “damage on ANTAR” value [1, 14] was 98% and the “damage on ANTAR” value [1, 15] was 100%. The “damage on ANTAR” value [1, 16] was 82%, the “damage on ANTAR” value [1, 17] was 91% and the “damage on ANTAR” value [1, 18] was 100%. For the same molecule, the “damage on ANTAR” value [1, 19] was 100%, the “damage on ANTAR” value [1, 20] was 100% and the “damage on ANTAR” value [1, 21] was 100%. For the same molecule, the “damage on ANTAR” value [1, 22] was 93%, the “damage on ANTAR” value [1, 23] was 94% and the “damage on ANTAR” value [1, 24] was 98%. The “damage on ANTAR” value [1, 25] was 100%, the “damage on ANTAR” value [1, 26] was 100% and the “damage on ANTAR” value [1, 27] was 100%. The “damage on ANTAR” value [1, 28] was 100%, the “damage on ANTAR” value [1, 29] was 100% and the “damage on ANTAR” value [1, 30] was 100%. For the same molecule, the “damage on ALOMY” value [2, 7] was 0%, the “damage on ALOMY” value [2, 8] was 22% and the “damage on ALOMY” value [2, 9] was 22%. For the same molecule, the “damage on ALOMY” value [2, 10] was 0%, the “damage on ALOMY” value [2, 11] was 25% and the “damage on ALOMY” value [2, 12] was 25%. For the same molecule, the “damage on ALOMY” value [2, 13] was 57%, the “damage on ALOMY” value [2, 14] was 37% and the “damage on ALOMY” value [2, 15] was 37%. For the same molecule, the “damage on ALOMY” value [2, 16] was 0%, the “damage on ALOMY” value [2, 17] was 32% and the “damage on ALOMY” value [2, 18] was 32%. For the same molecule, the “damage on ALOMY” value [2, 19] was 77%, the “damage on ALOMY” value [2, 20] was 80% and the “damage on ALOMY” value [2, 21] was 80%. For the same molecule, the “damage on ALOMY” value [2, 22] was 20%, the “damage on ALOMY” value [2, 23] was 42% and the “damage on ALOMY” value [2, 24] was 42%. The “damage on ALOMY” value [2, 25] was 22%, the “damage on ALOMY” value [2, 26] was 38% and the “damage on ALOMY” value [2, 27] was 37%. For the same molecule, the “damage on ALOMY” value [2, 28] was 32%, the “damage on ALOMY” value [2, 29] was 80% and the “damage on ALOMY” value [2, 30] was 42%. For the same molecule, the “damage on MATIN” value [3, 7] was 97%, the “damage on MATIN” value [3, 8] was 96% and the “damage on MATIN” value [3, 9] was 100%. For the same molecule, the “damage on MATIN” value [3, 10] was 88%, the “damage on MATIN” value [3, 11] was 88% and the “damage on MATIN” value [3, 12] was 98%. For the same molecule, the “damage on MATIN” value [3, 13] was 100%, the “damage on MATIN” value [3, 14] was 98% and the “damage on MATIN” value [3, 15] was 100%. For the same molecule, the “damage on MATIN” value [3, 16] was 82%, the “damage on MATIN” value [3, 17] was 91% and the “damage on MATIN” value [3, 18] was 100%. The “damage on MATIN” value [3, 19] was 100%, the “damage on MATIN” value [3, 20] was 100% and the “damage on MATIN” value [3, 21] was 100%. For the same molecule, the “damage on MATIN” value [3, 22] was 88%, the “damage on MATIN” value [3, 23] was 94% and the “damage on MATIN” value [3, 24] was 98%. The “damage on MATIN” value [3, 25] was 100%, the “damage on MATIN” value [3, 26] was 100% and the “damage on MATIN” value [3, 27] was 100%. For the same molecule, the “damage on MATIN” value [3, 28] was 100%, the “damage on MATIN” value [3, 29] was 100% and the “damage on MATIN” value [3, 30] was 100%. For the same molecule, the “damage on GERPU” value [4, 7] was 57%, the “damage on GERPU” value [4, 8] was 72% and the “damage on GERPU” value [4, 9] was 78%. For the same molecule, the “damage on GERPU” value [4, 10] was 75%, the “damage on GERPU” value [4, 11] was 68% and the “damage on GERPU” value [4, 12] was 75%. The “damage on GERPU” value [4, 13] was 92%, the “damage on GERPU” value [4, 14] was 90% and the “damage on GERPU” value [4, 15] was 95%. The “damage on GERPU” value [4, 16] was 78%, the “damage on GERPU” value [4, 17] was 82% and the “damage on GERPU” value [4, 18] was 93%. For the same molecule, the “damage on GERPU” value [4, 19] was 98%, the “damage on GERPU” value [4, 20] was 98% and the “damage on GERPU” value [4, 21] was 97%. The “damage on GERPU” value [4, 22] was 78%, the “damage on GERPU” value [4, 23] was 83% and the “damage on GERPU” value [4, 24] was 97%. For the same molecule, the “damage on GERPU” value [4, 25] was 73%, the “damage on GERPU” value [4, 26] was 73% and the “damage on GERPU” value [4, 27] was 99%. The “damage on GERPU” value [4, 28] was 96%, the “damage on GERPU” value [4, 29] was 98% and the “damage on GERPU” value [4, 30] was 98%. For the same molecule, the “% activity 28 DAT” value ([5]; aminopyralid 5 g ai/ha solo, post-emergence (Table 10)) was 70%, the “% activity 28 DAT” value ([5]; aminopyralid 5 g ai/ha solo, post-emergence (Tables 7-9)) was 40% and the “% activity 28 DAT” value ([5]; aminopyralid 10 g ai/ha solo, post-emergence (Table 10)) was 90%. For the same molecule, the “% activity 28 DAT” value ([5]; aminopyralid 10 g ai/ha solo, post-emergence (Tables 7-9)) was 75%, the inhibition at 10 g/ha ([5]; Mercurialis annua, post-emergence, 672 h, read-out: % activity 28 DAT, MERAN) was 90% and the “damage on PAPRH” value [6, 7] was 93%. The “damage on PAPRH” value [6, 8] was 93%, the “damage on PAPRH” value [6, 9] was 96% and the “damage on PAPRH” value [6, 10] was 72%. The “damage on PAPRH” value [6, 11] was 75%, the “damage on PAPRH” value [6, 12] was 96% and the “damage on PAPRH” value [6, 13] was 98%. The “damage on PAPRH” value [6, 14] was 95%, the “damage on PAPRH” value [6, 15] was 99% and the “damage on PAPRH” value [6, 16] was 72%. The “damage on PAPRH” value [6, 17] was 80%, the “damage on PAPRH” value [6, 18] was 96% and the “damage on PAPRH” value [6, 19] was 100%. For the same molecule, the “damage on PAPRH” value [6, 20] was 100%, the “damage on PAPRH” value [6, 21] was 100% and the “damage on PAPRH” value [6, 22] was 80%. For the same molecule, the “damage on PAPRH” value [6, 23] was 85%, the “damage on PAPRH” value [6, 24] was 97% and the “damage on PAPRH” value [6, 25] was 97%. For the same molecule, the “damage on PAPRH” value [6, 26] was 97%, the “damage on PAPRH” value [6, 27] was 98% and the “damage on PAPRH” value [6, 28] was 100%. The “damage on PAPRH” value [6, 29] was 100% and the “damage on PAPRH” value [6, 30] was 98%.
